Assay results from patent US9232799B2, “N-[(het)arylethyl)] pyrazole(thio)carboxamides and their heterosubstituted analogues” (BAYER INTELLECTUAL PROPERTY GMBH, priority 2010, dated 2016).

What was measured:
[1] = test system: Fusarium graminearum; test: microbe, parasite or virus in culture; format: cell-based; conditions: 50 μM
[2] = test system: Alternaria solani; test: In vivo preventive test on Alternaria solani (tomato); conditions: 500 ppm of active ingredient, evaluated 7 days after inoculation
Excerpt: One day after this treatment, the plants are inoculated with an aqueous spore suspension of Alternaria solani.

[3] = test system: Pyrenophora teres; test: In vivo preventive test on Pyrenophora teres (barley); conditions: 500 ppm of active ingredient, evaluated 7-9 days after inoculation
Excerpt: One day after this treatment, the plants are inoculated with an aqueous spore suspension of Pyrenophora teres.

[4] = logP by HPLC on reversed-phase column (C 18), EEC Directive 79/831 Annex V.A8; format: physicochemical
Procedure: In table 1, the logP values were determined in accordance with EEC Directive 79/831 Annex V.A8 by HPLC (High Performance Liquid Chromatography) on a reversed-phase column (C 18), using the method described below: Temperature: 40° C.; […]

[5] = test system: aflatoxines production; test: microbe, parasite or virus in culture; format: cell-based, Aspergillus parasiticus; conditions: 50 μM

Structure (SMILES)	% Inhibition of fungal growth at 50 μM [1] [%]	Efficacy [2] [%]	Efficacy [3] [%]	logP [4]	% Inhibition of Aflatoxin at 50 μM [5] [%]
Cn1nc(C(F)F)c(C(=O)N(CCc2ccccc2)C2CC2)c1Cl [Example 12]	92	100	100	3.06	100
CC(CN(C(=O)c1c(C(F)F)nn(C)c1Cl)C1CC1)c1ccccc1 (stereo not shown) [Example 14]	100	100	100	3.31	100
CC(Cc1ccccc1F)N(C(=O)c1c(C(F)F)nn(C)c1Cl)C1CC1 (stereo not shown) [Example 20]	69	95	100	3.52	86
CN(CCc1ccc(F)cc1)C(=O)c1c(C(F)F)nn(C)c1F [Example 22]	100	100	100	2.50	100
CC(CNC(=O)c1c(C(F)F)nn(C)c1Cl)c1c(F)cccc1F (stereo not shown) [Example 29]	82	100	100	2.92	100
CC(CNC(=O)c1c(C(F)F)nn(C)c1F)c1c(F)cccc1F (stereo not shown) [Example 30]	98	100	100	2.78	100
Cn1nc(C(F)F)c(C(=O)NCCc2ccccc2Cl)c1F [Example 32]	99	95	100	2.69	100
Cn1nc(C(F)F)c(C(=O)NCCc2ccccc2Cl)c1Cl [Example 34]	84	100	100	2.88	100
CN(CCc1ccccc1Cl)C(=O)c1c(C(F)F)nn(C)c1F [Example 35]	100	100	100	2.76	100
CN(CCc1ccccc1Cl)C(=O)c1c(C(F)F)nn(C)c1Cl [Example 36]	94	100	95	2.92	100
CC(CNC(=O)c1c(C(F)F)nn(C)c1F)c1ccccc1Cl (stereo not shown) [Example 39]	100	100	100	2.94	100
CC(CNC(=O)c1c(C(F)F)nn(C)c1Cl)c1ccccc1Cl (stereo not shown) [Example 40]	78	100	94	3.15	99
CC(c1ccccc1Cl)C(C)N(C(=O)c1c(C(F)F)nn(C)c1Cl)C1CC1 (stereo not shown) [Example 42]	84	80	100	4.08	100
Cn1nc(C(F)F)c(C(=O)NCCc2cccc(Cl)c2)c1F [Example 47]	100	100	100	2.75	100
Cn1nc(C(F)F)c(C(=O)NCCc2cccc(Cl)c2)c1Cl [Example 49]	91	100	94	2.92	100
CC(CNC(=O)c1c(C(F)F)nn(C)c1F)c1cccc(Cl)c1 (stereo not shown) [Example 51]	100	100	100	3.02	100
CC(CNC(=O)c1c(C(F)F)nn(C)c1Cl)c1cccc(Cl)c1 (stereo not shown) [Example 52]	83	100	100	3.21	100
CCN(CCc1ccc(Cl)cc1)C(=O)c1c(C(F)F)nn(C)c1F [Example 56]	93	100	100	3.19	100
CC(C)C(CNC(=O)c1c(C(F)F)nn(C)c1Cl)c1ccc(Cl)cc1 (stereo not shown) [Example 59]	83	100	100	3.94	100
CC(C)C(CNC(=O)c1c(C(F)F)nn(C)c1F)c1ccc(Cl)cc1 (stereo not shown) [Example 60]	96	100	100	3.78	100
CC(CNC(=O)c1c(C(F)F)nn(C)c1F)c1ccc(Cl)cc1Cl (stereo not shown) [Example 84]	100	95	100	3.46	100
CC(CNC(=O)c1c(C(F)F)nn(C)c1Cl)c1ccc(Cl)cc1Cl (stereo not shown) [Example 85]	100	100	100	3.67	100
Cn1nc(C(F)F)c(C(=O)NCCc2cc(Cl)ccc2Cl)c1F [Example 90]	100	95	100	3.11	100
Cn1nc(C(F)F)c(C(=O)NCCc2cc(Cl)ccc2Cl)c1Cl [Example 91]	100	95	100	3.29	100
CN(CCc1cc(Cl)ccc1Cl)C(=O)c1c(C(F)F)nn(C)c1F [Example 94]	100	100	100	3.17	100
CC(CNC(=O)c1c(C(F)F)nn(C)c1F)c1cc(Cl)ccc1Cl (stereo not shown) [Example 97]	100	95	100	3.35	100
CC(CNC(=O)c1c(C(F)F)nn(C)c1Cl)c1cc(Cl)ccc1Cl (stereo not shown) [Example 98]	95	95	94	3.55	100
Cn1nc(C(F)F)c(C(=O)NCC(C)(C)c2cc(Cl)ccc2Cl)c1F [Example 100]	85	95	94	3.68	99
Cn1nc(C(F)F)c(C(=O)NCCc2cc(Cl)cc(Cl)c2)c1F [Example 103]	99	90	100	3.25	100
